# Assay results published in patent US12371428B2 (Exelixis, Inc., priority 2019, dated 2025).
# Where two headings read alike, the source gives them in different places.
# Columns and labels:
# Assay type in all cases: cell-based
# [1] = molecular target: KDR (phospho-KDR, VEGF165-stimulated HUVEC cells) (Homo sapiens (Human), UniProt P35968); assay: KDR autophosphorylation ELISA in HUVEC cells (Example G); conditions: cellular activity; KDR autophosphorylation ELISA in HUVEC cells
# Outline: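 Cells seeded, grown 24 h at 37 °C, starved 24 h serum-free; cpd 8-pt curve, 0.3% DMSO, 1 h; VEGF165 100 ng/mL, 5 min; cold PBS wash, lysis with orthovanadate and protease/phosphatase inhibitors; pKDR ELISA; IC50 by 4-parameter logistic regression.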
# [2] = molecular target: Met (phospho-Met, HGF-stimulated PC-3 prostate cancer cells) (Homo sapiens (Human), UniProt P08581); assay: Met autophosphorylation ELISA in PC-3 cells (Example F); conditions: cellular activity; Met autophosphorylation ELISA in PC-3 cells; read-out: c-Met IC50
# Sequence of Met (phospho-Met, HGF-stimulated PC-3 prostate cancer cells) (P08581 25-1390): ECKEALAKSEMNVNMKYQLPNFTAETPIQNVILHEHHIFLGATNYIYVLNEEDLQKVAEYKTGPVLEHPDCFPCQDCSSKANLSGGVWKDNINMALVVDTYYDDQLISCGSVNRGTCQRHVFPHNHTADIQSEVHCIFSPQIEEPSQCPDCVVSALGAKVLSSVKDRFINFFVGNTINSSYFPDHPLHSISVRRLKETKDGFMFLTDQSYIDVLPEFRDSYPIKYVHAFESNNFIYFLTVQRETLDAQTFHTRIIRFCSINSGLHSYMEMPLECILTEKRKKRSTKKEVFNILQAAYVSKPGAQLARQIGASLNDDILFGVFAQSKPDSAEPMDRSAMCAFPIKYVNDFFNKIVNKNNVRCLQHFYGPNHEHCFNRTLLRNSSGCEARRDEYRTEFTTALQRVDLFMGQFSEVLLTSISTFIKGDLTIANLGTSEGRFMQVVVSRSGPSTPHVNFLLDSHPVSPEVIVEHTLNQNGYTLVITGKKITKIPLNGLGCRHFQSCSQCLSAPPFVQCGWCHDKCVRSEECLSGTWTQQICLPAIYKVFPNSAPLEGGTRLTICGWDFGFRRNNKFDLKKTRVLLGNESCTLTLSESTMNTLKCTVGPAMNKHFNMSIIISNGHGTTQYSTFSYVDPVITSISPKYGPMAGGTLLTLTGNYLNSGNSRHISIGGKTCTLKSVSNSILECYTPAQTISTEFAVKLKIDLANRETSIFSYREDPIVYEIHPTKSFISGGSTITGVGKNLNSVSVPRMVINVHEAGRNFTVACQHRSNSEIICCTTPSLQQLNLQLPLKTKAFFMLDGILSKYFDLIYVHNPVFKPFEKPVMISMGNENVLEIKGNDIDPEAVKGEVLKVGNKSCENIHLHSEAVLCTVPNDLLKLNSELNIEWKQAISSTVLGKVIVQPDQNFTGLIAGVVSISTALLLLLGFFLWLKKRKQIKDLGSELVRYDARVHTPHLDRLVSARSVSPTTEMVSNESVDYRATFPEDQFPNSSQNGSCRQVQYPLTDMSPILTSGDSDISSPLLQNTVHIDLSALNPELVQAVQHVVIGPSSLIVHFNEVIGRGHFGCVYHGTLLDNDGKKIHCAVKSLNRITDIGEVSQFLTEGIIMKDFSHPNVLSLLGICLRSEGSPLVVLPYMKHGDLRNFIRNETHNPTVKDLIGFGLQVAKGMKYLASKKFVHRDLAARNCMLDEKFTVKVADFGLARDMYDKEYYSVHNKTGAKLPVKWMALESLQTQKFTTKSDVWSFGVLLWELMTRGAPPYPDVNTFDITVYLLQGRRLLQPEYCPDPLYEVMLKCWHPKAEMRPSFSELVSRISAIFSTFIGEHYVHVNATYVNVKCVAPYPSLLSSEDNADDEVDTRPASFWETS
# Outline: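 Sandwich ELISA for phospho-Met (panTyr) in PC-3 lysates. Cells starved 3 h serum-free, compound 1 h (8-pt curve, 0.3% DMSO), HGF 100 ng/mL 10 min. 100% = HGF + DMSO; 0% = HGF + reference inhibitor. IC50 by 4-parameter fit.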
# [3] = molecular target: Mer (phospho-Mer, MERTK-transfected 293A cells) (Homo sapiens (Human), UniProt Q12866); assay: Mer autophosphorylation ELISA in transient transfected 293A cells (Example H); conditions: cellular activity; Mer autophosphorylation ELISA in transient transfected 293A cells
# Sequence of Mer (phospho-Mer, MERTK-transfected 293A cells) (Q12866 21-999): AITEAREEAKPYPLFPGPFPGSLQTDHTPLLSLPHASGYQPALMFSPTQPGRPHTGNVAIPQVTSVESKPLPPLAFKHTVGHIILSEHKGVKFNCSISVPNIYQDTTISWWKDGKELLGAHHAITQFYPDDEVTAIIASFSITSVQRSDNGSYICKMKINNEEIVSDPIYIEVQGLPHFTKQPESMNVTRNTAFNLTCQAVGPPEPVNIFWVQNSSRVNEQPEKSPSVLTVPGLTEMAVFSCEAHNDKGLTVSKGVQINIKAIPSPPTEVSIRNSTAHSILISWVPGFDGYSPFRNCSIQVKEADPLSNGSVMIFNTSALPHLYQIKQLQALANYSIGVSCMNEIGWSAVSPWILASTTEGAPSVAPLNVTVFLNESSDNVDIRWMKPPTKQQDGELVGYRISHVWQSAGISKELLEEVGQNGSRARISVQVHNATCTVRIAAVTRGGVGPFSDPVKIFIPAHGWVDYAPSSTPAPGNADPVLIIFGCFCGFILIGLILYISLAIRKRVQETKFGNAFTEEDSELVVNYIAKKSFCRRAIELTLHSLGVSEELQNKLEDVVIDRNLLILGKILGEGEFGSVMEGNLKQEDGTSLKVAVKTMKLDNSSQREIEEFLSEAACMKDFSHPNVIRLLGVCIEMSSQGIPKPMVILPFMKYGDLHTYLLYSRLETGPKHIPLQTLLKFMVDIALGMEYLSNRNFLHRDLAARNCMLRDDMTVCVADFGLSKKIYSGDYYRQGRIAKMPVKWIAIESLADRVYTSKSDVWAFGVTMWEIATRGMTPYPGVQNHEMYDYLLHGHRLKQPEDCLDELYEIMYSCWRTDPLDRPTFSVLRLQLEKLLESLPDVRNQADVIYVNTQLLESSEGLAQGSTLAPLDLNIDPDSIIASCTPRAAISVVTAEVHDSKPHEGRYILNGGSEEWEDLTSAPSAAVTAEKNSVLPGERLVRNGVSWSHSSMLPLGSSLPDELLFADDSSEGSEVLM
# Outline: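 293A cells transiently transfected with human MERTK were treated 1 h in serum-free medium with an 8-point compound dilution (0.3% DMSO final). Lysates were assayed by phospho-Mer sandwich ELISA against a phospho-Mer standard; IC50 came from a 4-parameter logistic fit, normalised to DMSO (100%) and reference-inhibitor (0%) controls.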
# [4] = molecular target: AXL (phospho-AXL, Gas6-stimulated A-172 glioblastoma cells) (Homo sapiens (Human), UniProt P30530); assay: AXL autophosphorylation ELISA in A-172 cells (Example E)
# Sequence of AXL (phospho-AXL, Gas6-stimulated A-172 glioblastoma cells) (P30530 26-894): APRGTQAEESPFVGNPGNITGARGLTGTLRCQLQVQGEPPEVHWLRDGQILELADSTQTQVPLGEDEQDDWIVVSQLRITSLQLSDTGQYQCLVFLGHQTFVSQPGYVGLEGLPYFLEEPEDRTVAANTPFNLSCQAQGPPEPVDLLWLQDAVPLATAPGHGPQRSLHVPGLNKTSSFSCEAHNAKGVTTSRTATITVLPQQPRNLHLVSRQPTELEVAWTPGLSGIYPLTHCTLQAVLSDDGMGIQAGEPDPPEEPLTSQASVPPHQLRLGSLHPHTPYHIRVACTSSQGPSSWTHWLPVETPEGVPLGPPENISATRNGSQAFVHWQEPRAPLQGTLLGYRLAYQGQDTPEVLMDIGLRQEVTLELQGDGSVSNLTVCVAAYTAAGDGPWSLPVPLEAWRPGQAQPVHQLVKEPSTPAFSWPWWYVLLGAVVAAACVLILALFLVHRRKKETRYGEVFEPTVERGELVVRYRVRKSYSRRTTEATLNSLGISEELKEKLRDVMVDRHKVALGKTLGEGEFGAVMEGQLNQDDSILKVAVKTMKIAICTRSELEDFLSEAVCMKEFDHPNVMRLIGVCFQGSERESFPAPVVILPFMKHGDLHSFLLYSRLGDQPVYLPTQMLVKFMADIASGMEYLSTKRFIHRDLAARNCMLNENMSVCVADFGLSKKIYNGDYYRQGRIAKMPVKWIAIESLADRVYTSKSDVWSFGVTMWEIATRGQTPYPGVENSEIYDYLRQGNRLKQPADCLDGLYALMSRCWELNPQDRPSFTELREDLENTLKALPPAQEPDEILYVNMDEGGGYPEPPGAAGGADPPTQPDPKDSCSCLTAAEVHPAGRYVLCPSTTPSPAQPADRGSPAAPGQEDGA
# Outline: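 Phospho-AXL in lysates was quantified by ELISA, normalised to DMSO (100%) and reference inhibitor (0%) controls. IC50 by 4-parameter logistic fit.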
# [5] = cellular activity, AXL autophosphorylation ELISA in A-172 cells, read-out: Axl IC50
# Sequence of KDR (phospho-KDR, VEGF165-stimulated HUVEC cells) (P35968 20-1356): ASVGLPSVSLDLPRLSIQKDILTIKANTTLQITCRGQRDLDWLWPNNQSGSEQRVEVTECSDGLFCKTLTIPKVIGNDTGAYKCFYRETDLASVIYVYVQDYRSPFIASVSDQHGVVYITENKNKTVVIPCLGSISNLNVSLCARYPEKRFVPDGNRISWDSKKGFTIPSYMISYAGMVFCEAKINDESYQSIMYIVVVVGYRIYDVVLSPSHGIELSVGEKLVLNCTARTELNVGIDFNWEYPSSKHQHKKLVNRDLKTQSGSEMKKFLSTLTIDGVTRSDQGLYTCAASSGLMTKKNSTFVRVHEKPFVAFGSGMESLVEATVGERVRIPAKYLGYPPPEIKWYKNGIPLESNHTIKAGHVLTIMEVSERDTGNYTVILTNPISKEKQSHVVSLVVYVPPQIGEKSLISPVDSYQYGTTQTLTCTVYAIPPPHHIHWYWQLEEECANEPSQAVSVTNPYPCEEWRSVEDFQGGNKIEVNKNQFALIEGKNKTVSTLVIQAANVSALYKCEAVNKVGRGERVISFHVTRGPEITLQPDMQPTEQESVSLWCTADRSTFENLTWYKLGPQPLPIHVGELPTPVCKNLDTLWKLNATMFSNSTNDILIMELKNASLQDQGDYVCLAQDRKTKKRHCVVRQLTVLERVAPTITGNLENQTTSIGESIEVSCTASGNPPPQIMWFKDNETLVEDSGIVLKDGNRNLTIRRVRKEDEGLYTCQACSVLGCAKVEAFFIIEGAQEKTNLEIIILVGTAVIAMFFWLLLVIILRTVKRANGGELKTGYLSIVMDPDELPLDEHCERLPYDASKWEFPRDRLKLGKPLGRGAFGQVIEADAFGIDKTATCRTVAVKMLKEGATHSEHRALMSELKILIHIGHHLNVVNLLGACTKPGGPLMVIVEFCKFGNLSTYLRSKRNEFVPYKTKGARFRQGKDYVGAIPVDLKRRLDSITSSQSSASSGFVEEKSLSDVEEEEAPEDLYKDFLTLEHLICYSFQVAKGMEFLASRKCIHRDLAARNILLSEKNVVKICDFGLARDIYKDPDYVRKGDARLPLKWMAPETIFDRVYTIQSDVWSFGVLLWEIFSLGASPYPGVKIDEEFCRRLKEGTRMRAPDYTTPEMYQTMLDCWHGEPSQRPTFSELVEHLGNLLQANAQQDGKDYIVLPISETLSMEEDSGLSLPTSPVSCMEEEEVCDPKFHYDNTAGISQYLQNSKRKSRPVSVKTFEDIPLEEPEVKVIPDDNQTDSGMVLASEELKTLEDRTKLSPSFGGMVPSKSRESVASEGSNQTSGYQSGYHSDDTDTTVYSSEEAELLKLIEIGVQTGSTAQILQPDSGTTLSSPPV
Structure (SMILES),IC50 [1] [nM],IC50 [2] [nM],IC50 [3] [nM],IC50 [4] [nM],"IC50 [4, 5] [nM]"
"COc1cc2nccc(Oc3ccc(NC(=O)c4c(C)n(C)nc(-c5ccc(F)cc5C)c4=O)cc3F)c2nc1OC [Compound 750, N-[4-[(6,7-dimethoxy-1,5-naphthyridin-4-yl)oxy]-3-fluorophenyl]-6-(4-fluoro-2-methylphenyl)-2,3-dimethyl-5-oxopyridazine-4-carboxamide]",100 to 300,< 100,< 100,< 100,–
"COc1cnc2c(Oc3cc(F)c(NC(=O)c4c(C)nc(C)c(-c5ccc(F)cc5C)c4O)cc3F)ccnc2c1 [Compound 751, N-[2,5-difluoro-4-[(7-methoxy-1,5-naphthyridin-4-yl)oxy]phenyl]-5-(4-fluoro-2-methylphenyl)-4-hydroxy-2,6-dimethylpyridine-3-carboxamide]",< 100,< 100,< 100,–,< 100
"CNC(=O)c1cc2nccc(Oc3cc(F)c(NC(=O)c4c(C)nc(C)c(-c5ccc(F)cc5C)c4O)cc3F)c2cc1C [Compound 752, 4-[2,5-difluoro-4-[[5-(4-fluoro-2-methylphenyl)-4-hydroxy-2,6-dimethylpyridine-3-carbonyl]amino]phenoxy]-N,6-dimethylquinoline-7-carboxamide]",< 100,< 100,< 100,–,< 100
"COc1cc2nccc(Oc3ccc(NC(=O)c4c(OC)c(C(C)=O)cn(-c5ccc(F)cc5)c4=O)cc3)c2nc1OC [Compound 753, 5-acetyl-N-[4-[(6,7-dimethoxy-1,5-naphthyridin-4-yl)oxy]phenyl]-1-(4-fluorophenyl)-4-methoxy-2-oxopyridine-3-carboxamide]",> 300,< 100,< 100,–,< 100
"COc1cc2nccc(Oc3ccc(NC(=O)c4c(OC)c(C(C)=O)cn(-c5ccc(F)cc5)c4=O)cc3F)c2nc1OC [Compound 754, 5-acetyl-N-[4-[(6,7-dimethoxy-1,5-naphthyridin-4-yl)oxy]-3-fluorophenyl]-1-(4-fluorophenyl)-4-methoxy-2-oxopyridine-3-carboxamide]",> 300,< 100,< 100,–,< 100
"COCCOc1cc2nccc(Oc3ccc(NC(=O)c4cc(C(C)=O)c(C)n(-c5ccc(F)cc5)c4=O)cc3)c2nc1OC [Compound 757, 5-acetyl-1-(4-fluorophenyl)-N-[4-[[6-methoxy-7-(2-methoxyethoxy)-1,5-naphthyridin-4-yl]oxy]phenyl]-6-methyl-2-oxopyridine-3-carboxamide]",> 300,< 100,< 100,–,< 100
"COCCOc1cnc2c(Oc3ccc(NC(=O)c4cc(C(C)=O)c(C)n(-c5ccc(F)cc5)c4=O)cc3F)ccnc2c1 [Compound 758, 5-acetyl-N-[3-fluoro-4-[[7-(2-methoxyethoxy)-1,5-naphthyridin-4-yl]oxy]phenyl]-1-(4-fluorophenyl)-6-methyl-2-oxopyridine-3-carboxamide]",> 300,< 100,< 100,–,< 100
"COc1cc2nccc(Oc3ccc(NC(=O)c4cn5c(c(-c6ccc(F)cc6)c4=O)OC(C)C5)cc3F)c2nc1OC (centres unmarked) [Compound 759, N-[4-[(6,7-dimethoxy-1,5-naphthyridin-4-yl)oxy]-3-fluorophenyl]-8-(4-fluorophenyl)-2-methyl-7-oxo-2,3-dihydro-[1,3]oxazolo[3,2-a]pyridine-6-carboxamide]",< 100,< 100,< 100,–,< 100
"COCCOc1cc2c(Oc3ccc(NC(=O)c4cn(C)c(C)c(-c5ccc(F)cc5)c4=O)cc3F)ccnc2nc1OC [Compound 760, N-[3-fluoro-4-[[7-methoxy-6-(2-methoxyethoxy)-1,8-naphthyridin-4-yl]oxy]phenyl]-5-(4-fluorophenyl)-1,6-dimethyl-4-oxopyridine-3-carboxamide]",> 300,< 100,< 100,–,< 100
"COc1cc(NC(=O)c2cn(C)c(C)c(-c3ccc(F)cc3)c2=O)ccc1Oc1ccnc2cc(OC)c(OC)nc12 [Compound 762, N-[4-[(6,7-dimethoxy-1,5-naphthyridin-4-yl)oxy]-3-methoxyphenyl]-5-(4-fluorophenyl)-1,6-dimethyl-4-oxopyridine-3-carboxamide]",< 100,< 100,< 100,–,< 100
"COc1cc2nccc(Oc3ccc(NC(=O)c4cn(C)c(C)c(-c5ccc(F)cc5)c4=O)cc3C)c2nc1OC [Compound 763, N-[4-[(6,7-dimethoxy-1,5-naphthyridin-4-yl)oxy]-3-methylphenyl]-5-(4-fluorophenyl)-1,6-dimethyl-4-oxopyridine-3-carboxamide]",< 100,< 100,< 100,–,< 100
"COc1cc2nccc(Oc3ccc(NC(=O)c4cn(CCO)c(CO)c(-c5ccc(F)cc5C)c4=O)cc3F)c2nc1OC [Compound 765, N-[4-[(6,7-dimethoxy-1,5-naphthyridin-4-yl)oxy]-3-fluorophenyl]-5-(4-fluoro-2-methylphenyl)-1-(2-hydroxyethyl)-6-(hydroxymethyl)-4-oxopyridine-3-carboxamide]",> 300,< 100,< 100,–,< 100
"COc1cc2nccc(Oc3ccc(NC(=O)c4cn5c(c(-c6ccc(F)cc6C)c4=O)COCC5)cc3F)c2nc1OC [Compound 766, N-[4-[(6,7-dimethoxy-1,5-naphthyridin-4-yl)oxy]-3-fluorophenyl]-9-(4-fluoro-2-methylphenyl)-8-oxo-3,4-dihydro-1H-pyrido[2,1-c][1,4]oxazine-7-carboxamide]",> 300,< 100,< 100,–,< 100
"COc1cnc2c(Oc3c(F)cc(NC(=O)c4c(C)nc(C)c(-c5ccc(F)cc5C)c4O)cc3F)ccnc2c1 [Compound 767, N-[3,5-difluoro-4-[(7-methoxy-1,5-naphthyridin-4-yl)oxy]phenyl]-5-(4-fluoro-2-methylphenyl)-4-hydroxy-2,6-dimethylpyridine-3-carboxamide]",< 100,< 100,< 100,–,< 100
"COc1cc2nccc(Oc3cc(F)c(NC(=O)c4c(C)n(C)c(C)c(-c5ccc(F)cc5)c4=O)cc3F)c2nc1OC [Compound 769, N-[4-[(6,7-dimethoxy-1,5-naphthyridin-4-yl)oxy]-2,5-difluorophenyl]-5-(4-fluorophenyl)-1,2,6-trimethyl-4-oxopyridine-3-carboxamide]",100 to 300,< 100,< 100,–,< 100
"COc1cnc2c(Oc3cc(F)c(NC(=O)c4c(C)nc(C)c(-c5ccc(F)cc5C)c4O)cc3Cl)ccnc2c1 [Compound 770, N-[5-chloro-2-fluoro-4-[(7-methoxy-1,5-naphthyridin-4-yl)oxy]phenyl]-5-(4-fluoro-2-methylphenyl)-4-hydroxy-2,6-dimethylpyridine-3-carboxamide]",< 100,< 100,< 100,–,< 100
"COc1cnc2c(Oc3ccc(NC(=O)c4c(C)n(C)c(C)c(-c5ccc(F)cc5C)c4=O)cc3F)ccnc2c1 [Compound 771, N-[3-fluoro-4-[(7-methoxy-1,5-naphthyridin-4-yl)oxy]phenyl]-5-(4-fluoro-2-methylphenyl)-1,2,6-trimethyl-4-oxopyridine-3-carboxamide]",> 300,< 100,< 100,–,< 100
"COc1cc2nccc(Oc3cc(F)c(NC(=O)c4c(C)n(C)c(C)c(-c5ccc(F)cc5C)c4=O)cc3F)c2nc1OC [Compound 772, N-[4-[(6,7-dimethoxy-1,5-naphthyridin-4-yl)oxy]-2,5-difluorophenyl]-5-(4-fluoro-2-methylphenyl)-1,2,6-trimethyl-4-oxopyridine-3-carboxamide]",100 to 300,< 100,< 100,–,< 100
"COc1cc2nccc(Oc3ccc(NC(=O)c4c(C)n(C)c(C)c(-c5ccc(F)cc5C)c4=O)cc3F)c2nc1OC [Compound 774, N-[4-[(6,7-dimethoxy-1,5-naphthyridin-4-yl)oxy]-3-fluorophenyl]-5-(4-fluoro-2-methylphenyl)-1,2,6-trimethyl-4-oxopyridine-3-carboxamide]",100 to 300,< 100,< 100,–,< 100
"COc1cc2nccc(Oc3ccc(NC(=O)c4c5n(c(C)c(-c6ccc(F)cc6C)c4=O)CCOC5)cc3F)c2nc1OC [Compound 782, N-[4-[(6,7-dimethoxy-1,5-naphthyridin-4-yl)oxy]-3-fluorophenyl]-7-(4-fluoro-2-methylphenyl)-6-methyl-8-oxo-3,4-dihydro-1H-pyrido[2,1-c][1,4]oxazine-9-carboxamide]",> 300,< 100,< 100,–,< 100
